Assay results as given in patent US10597388B2, “Pyridazinone herbicides” (FMC CORPORATION, priority 2014, dated 2020).

Columns and labels:
Test in all cases: Test E greenhouse herbicide test, pre- and postemergence
Type in all cases: in vivo
[1] = test system: dayflower (Virginia (VA) dayflower, Commelina virginica)
Outline: (§1)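 Greenhouse pots; preemergence on silt loam, postemergence on plants 1- to 4-leaf (2 to 18 cm) grown in peat, vermiculite and nutrient medium. Test chemicals formulated in non-phytotoxic solvent with surfactant. Ratings taken after 14 to 21 d.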

[2] = test system: horseweed (Conyza canadensis)
Outline: as §1

[3] = test system: barnyardgrass (Echinochloa crus-galli)
Outline: as §1

[4] = test system: sandbur (southem sandbur, Cenchrus echinatus)
Outline: as §1

[5] = test system: pigweed, palmer (palmer pigweed, Amaranthus palmeri)
Outline: as §1

[6] = test system: arrowleaf sida (Sida rhombifolia)
Outline: as §1

[7] = test system: ragweed (common ragweed, Ambrosia elatior)
Outline: as §1

corn (Zea mays) = test system: corn (Zea mays)
Outline: as §1

[8] = test system: panicum, fall (fall panicum, Panicum dichotomiflorum)
Outline: as §1

[9] = test system: foxtail, giant (giant foxtail, Setaria faberii); conditions: Preemergence
Outline: as §1

[10] = test system: goosegrass (Eleusine indica); conditions: Preemergence
Outline: as §1

[11] = test system: crabgrass, large (large crabgrass, Digitaria sanguinalis); conditions: Preemergence
Outline: as §1

[12] = test system: velvetleaf (Abutilon theophrasti); conditions: Preemergence
Outline: as §1

[13] = test system: momingglory (Ipomoea coccinea); conditions: Preemergence
Outline: as §1

[14] = test system: lambsquarters (Chenopodium album); conditions: Preemergence
Outline: as §1

[15] = test system: surinam grass (Brachiaria decumbens); conditions: Preemergence
Outline: as §1

[16] = 62 g ai/ha, Postemergence, scale 0 to 100 (0 no effect, 100 complete control)
[17] = 125 g ai/ha, Postemergence, scale 0 to 100 (0 no effect, 100 complete control)
[18] = Postemergence, 16 g ai/ha, visual, scale 0 no effect to 100 complete control
[19] = Postemergence, 31 g ai/ha, visual, scale 0 no effect to 100 complete control
[20] = 62 g ai/ha, Preemergence, scale 0 to 100 (0 no effect, 100 complete control)
[21] = Preemergence, 31 g ai/ha, scale 0 to 100, 0 no effect, 100 complete control
[22] = Preemergence, 125 g ai/ha, visual, scale 0 no effect to 100 complete control
[23] = Preemergence, 250 g ai/ha, visual, scale 0 no effect to 100 complete control
[24] = 62 g ai/ha, scale 0 to 100 (0 no effect, 100 complete control)
[25] = 31 g ai/ha, scale 0 to 100, 0 no effect, 100 complete control
[26] = 125 g ai/ha, visual, scale 0 no effect to 100 complete control
[27] = 250 g ai/ha, visual, scale 0 no effect to 100 complete control
[28] = 125 g ai/ha, scale 0 to 100 (0 no effect, 100 complete control)
[29] = 125 g ai/ha, Preemergence, scale 0 to 100 (0 no effect, 100 complete control)
[30] = 250 g ai/ha, Postemergence, scale 0 to 100 (0 no effect, 100 complete control)

CC(=O)Oc1c(C)nn(C)c(=O)c1-c1ccc(F)c2ccccc12 [Compound 90]
Plant response rating, Dayflower, VA [1, 16]: 80 | Plant response rating, Dayflower, VA [1, 17]: 90 | Plant response rating, Dayflower, VA [1, 18]: 40 | Plant response rating, Dayflower, VA [1, 19]: 60 | Plant response rating, Horseweed [2, 16]: 75 | Plant response rating, Horseweed [2, 17]: 70 | Plant response rating, Horseweed [2, 18]: 50 | Plant response rating, Horseweed [2, 19]: 70 | Plant response rating, Barnyardgrass [3, 16]: 40 | Plant response rating, Barnyardgrass [3, 17]: 50 | Plant response rating, Barnyardgrass [3, 18]: 30 | Plant response rating, Barnyardgrass [3, 19]: 30 | Plant response rating, Sandbur [4, 17]: 50 | Plant response rating, Sandbur [4, 18]: 40 | Plant response rating, Sandbur [4, 19]: 40 | Plant response rating, Pigweed, Palmer [5, 16]: 50 | Plant response rating, Pigweed, Palmer [5, 17]: 60 | Plant response rating, Pigweed, Palmer [5, 18]: 40 | Plant response rating, Pigweed, Palmer [5, 19]: 65 | Plant response rating, Arrowleaf Sida [6, 16]: 90 | Plant response rating, Arrowleaf Sida [6, 17]: 90 | Plant response rating, Arrowleaf Sida [6, 18]: 70 | Plant response rating, Arrowleaf Sida [6, 19]: 80 | Plant response rating, Ragweed [7, 16]: 80 | Plant response rating, Ragweed [7, 17]: 90 | Plant response rating, Ragweed [7, 18]: 50 | Plant response rating, Ragweed [7, 19]: 75 | Plant response rating, Corn (corn (Zea mays); [16]): 5 | Plant response rating, Corn (corn (Zea mays); [17]): 0 | Plant response rating, Corn (corn (Zea mays); [18]): 5 | Plant response rating, Corn (corn (Zea mays); [19]): 0 | Plant response rating, Panicum, Fall [8, 16]: 60 | Plant response rating, Panicum, Fall [8, 17]: 70 | Plant response rating, Panicum, Fall [8, 18]: 40 | Plant response rating, Panicum, Fall [8, 19]: 60

Cc1ccc2ccccc2c1-c1c(O)c(C)nn(C)c1=O [Compound 59]
Plant response rating, Dayflower, VA [1, 20]: 40 | Plant response rating, Dayflower, VA [1, 21]: 10 | Plant response rating, Dayflower, VA [1, 22]: 80 | Plant response rating, Dayflower, VA [1, 23]: 80 | Plant response rating, Horseweed [2, 20]: 100 | Plant response rating, Horseweed [2, 21]: 100 | Plant response rating, Horseweed [2, 22]: 100 | Plant response rating, Horseweed [2, 23]: 100 | Plant response rating, Barnyardgrass [3, 20]: 25 | Plant response rating, Barnyardgrass [3, 21]: 0 | Plant response rating, Barnyardgrass [3, 22]: 60 | Plant response rating, Barnyardgrass [3, 23]: 90 | Plant response rating, Foxtail, Giant [9, 24]: 95 | Plant response rating, Foxtail, Giant [9, 25]: 85 | Plant response rating, Foxtail, Giant [9, 26]: 98 | Plant response rating, Foxtail, Giant [9, 27]: 100 | Plant response rating, Goosegrass [10, 24]: 95 | Plant response rating, Goosegrass [10, 25]: 90 | Plant response rating, Goosegrass [10, 26]: 98 | Plant response rating, Goosegrass [10, 27]: 98 | Plant response rating, Crabgrass, Large [11, 24]: 50 | Plant response rating, Crabgrass, Large [11, 25]: 0 | Plant response rating, Crabgrass, Large [11, 26]: 80 | Plant response rating, Crabgrass, Large [11, 27]: 95 | Plant response rating, Velvetleaf [12, 24]: 95 | Plant response rating, Velvetleaf [12, 28]: 95 | Plant response rating, Velvetleaf [12, 25]: 90 | Plant response rating, Velvetleaf [12, 27]: 98 | Plant response rating, Morningglory [13, 24]: 95 | Plant response rating, Morningglory [13, 28]: 98 | Plant response rating, Morningglory [13, 25]: 75 | Plant response rating, Morningglory [13, 27]: 100 | Plant response rating, Sandbur [4, 20]: 70 | Plant response rating, Sandbur [4, 29]: 90 | Plant response rating, Sandbur [4, 21]: 70 | Plant response rating, Sandbur [4, 23]: 90 | Plant response rating, Pigweed, Palmer [5, 20]: 98 | Plant response rating, Pigweed, Palmer [5, 29]: 100 | Plant response rating, Pigweed, Palmer [5, 21]: 95 | Plant response rating, Pigweed, Palmer [5, 23]: 100 | Plant response rating, Arrowleaf Sida [6, 20]: 95 | Plant response rating, Arrowleaf Sida [6, 21]: 80 | Plant response rating, Arrowleaf Sida [6, 22]: 98 | Plant response rating, Arrowleaf Sida [6, 23]: 98 | Plant response rating, Lambsquarters [14, 24]: 100 | Plant response rating, Lambsquarters [14, 25]: 100 | Plant response rating, Lambsquarters [14, 26]: 100 | Plant response rating, Lambsquarters [14, 27]: 100 | Plant response rating, Ragweed [7, 20]: 95 | Plant response rating, Ragweed [7, 29]: 100 | Plant response rating, Ragweed [7, 21]: 100 | Plant response rating, Ragweed [7, 23]: 100 | Plant response rating, Corn (corn (Zea mays); [20]): 0 | Plant response rating, Corn (corn (Zea mays); [21]): 0 | Plant response rating, Corn (corn (Zea mays); [22]): 0 | Plant response rating, Corn (corn (Zea mays); [23]): 20 | Plant response rating, Surinam Grass [15, 24]: 90 | Plant response rating, Surinam Grass [15, 28]: 100 | Plant response rating, Surinam Grass [15, 25]: 85 | Plant response rating, Surinam Grass [15, 27]: 100 | Plant response rating, Panicum, Fall [8, 20]: 98 | Plant response rating, Panicum, Fall [8, 29]: 100 | Plant response rating, Panicum, Fall [8, 21]: 95 | Plant response rating, Panicum, Fall [8, 23]: 100

CSCC(=O)Oc1c(C)nn(C)c(=O)c1-c1cccc2ccccc12 [Compound 171]
Plant response rating, Dayflower, VA [1, 16]: 50 | Plant response rating, Dayflower, VA [1, 17]: 70 | Plant response rating, Dayflower, VA [1, 30]: 90 | Plant response rating, Dayflower, VA [1, 19]: 40 | Plant response rating, Horseweed [2, 16]: 60 | Plant response rating, Horseweed [2, 17]: 70 | Plant response rating, Horseweed [2, 30]: 60 | Plant response rating, Horseweed [2, 19]: 50 | Plant response rating, Barnyardgrass [3, 16]: 45 | Plant response rating, Barnyardgrass [3, 17]: 50 | Plant response rating, Barnyardgrass [3, 30]: 50 | Plant response rating, Barnyardgrass [3, 19]: 40 | Plant response rating, Sandbur [4, 17]: 50 | Plant response rating, Sandbur [4, 30]: 60 | Plant response rating, Sandbur [4, 19]: 30 | Plant response rating, Pigweed, Palmer [5, 16]: 50 | Plant response rating, Pigweed, Palmer [5, 17]: 60 | Plant response rating, Pigweed, Palmer [5, 30]: 70 | Plant response rating, Pigweed, Palmer [5, 19]: 50 | Plant response rating, Arrowleaf Sida [6, 16]: 80 | Plant response rating, Arrowleaf Sida [6, 17]: 90 | Plant response rating, Arrowleaf Sida [6, 30]: 95 | Plant response rating, Arrowleaf Sida [6, 19]: 80 | Plant response rating, Ragweed [7, 16]: 75 | Plant response rating, Ragweed [7, 17]: 90 | Plant response rating, Ragweed [7, 30]: 98 | Plant response rating, Ragweed [7, 19]: 60 | Plant response rating, Corn (corn (Zea mays); [16]): 0 | Plant response rating, Corn (corn (Zea mays); [17]): 0 | Plant response rating, Corn (corn (Zea mays); [30]): 0 | Plant response rating, Corn (corn (Zea mays); [19]): 0 | Plant response rating, Panicum, Fall [8, 16]: 50 | Plant response rating, Panicum, Fall [8, 17]: 60 | Plant response rating, Panicum, Fall [8, 30]: 75 | Plant response rating, Panicum, Fall [8, 19]: 40
